Data reported in article PMC7587356, “High-Throughput Screening for Inhibitors of the SARS-CoV-2 Protease Using a FRET-Biosensor” (Molecules, 2020).
Where a name gives a salt, the structure may show the parent alone. Read-outs that look alike come from different tables or passages of the source. Peptide text beside a SMILES is read from it. * marks the point of attachment. Cbz = O=C(OCc1ccccc1)*

Molecular target: SARS-CoV-2 3CLpro (Severe acute respiratory syndrome coronavirus 2, UniProt P0DTD1)
Experiment: biochemical
Format: biochemical
Parameters: Replicate_1 / Replicate_2 / mean / mean (LOPAC_screen_w_protease): unit not given here
Conditions: for inhibition at 5 µM: 4 h; for mean (LOPAC screen with protease) / Replicate_1 (LOPAC screen with protease) / Replicate_2 (LOPAC screen with protease): primary screen at 5 µM
[1] = sheet LOPAC_screen_w_protease, primary screen of LOPAC1280 at 5 µM with protease, mean of the two replicates
[2] = sheet LOPAC_screen_w_protease, primary screen of LOPAC1280 at 5 µM with protease, replicate 1
[3] = sheet LOPAC_screen_w_protease, primary screen of LOPAC1280 at 5 µM with protease, replicate 2
[4] = sheet LOPAC_screen_w_protease, primary screen with protease, mean of two replicates
[5] = sheet LOPAC_screen_w_protease, primary screen with protease, replicate 1
[6] = sheet LOPAC_screen_w_protease, primary screen with protease, replicate 2
[7] = sheet LOPAC_screen_w_protease, primary screen with protease, 5 µM, mean of two replicates, read-out: mean
[8] = sheet LOPAC_screen_w_protease, primary screen with protease, 5 µM, replicate 1, read-out: Replicate_1
[9] = sheet LOPAC_screen_w_protease, primary screen with protease, 5 µM, replicate 2, read-out: Replicate_2
[10] = sheet LOPAC_screen_w_protease, mean of two replicates
[11] = sheet LOPAC_screen_w_protease, replicate 1
[12] = sheet LOPAC_screen_w_protease, replicate 2
[13] = sheet LOPAC_screen_w_protease, LOPAC1280 primary screen at 5 µM, with protease, mean of the two replicates, read-out: mean
[14] = sheet LOPAC_screen_w_protease, LOPAC1280 primary screen at 5 µM, with protease, replicate 1, read-out: Replicate_1
[15] = sheet LOPAC_screen_w_protease, LOPAC1280 primary screen at 5 µM, with protease, replicate 2, read-out: Replicate_2
[16] = LOPAC1280 primary screen with protease, 5 µM compound, mean of the two replicates
[17] = LOPAC1280 primary screen with protease, 5 µM compound, replicate 1
[18] = LOPAC1280 primary screen with protease, 5 µM compound, replicate 2
[19] = sheet LOPAC_screen_w_protease, primary screen with protease, 5 µM, mean of two replicates
[20] = sheet LOPAC_screen_w_protease, primary screen with protease, 5 µM, replicate 1
[21] = sheet LOPAC_screen_w_protease, primary screen with protease, 5 µM, replicate 2
[22] = LOPAC1280 primary screen with protease, 5 µM compound, replicate 1, read-out: Replicate_1 (LOPAC_screen_w_protease)
[23] = LOPAC1280 primary screen with protease, 5 µM compound, replicate 2, read-out: Replicate_2 (LOPAC_screen_w_protease)
[24] = sheet LOPAC_screen_w_protease, primary screen with protease, mean of two replicates, read-out: mean
[25] = sheet LOPAC_screen_w_protease, primary screen with protease, replicate 1, read-out: Replicate_1
[26] = sheet LOPAC_screen_w_protease, primary screen with protease, replicate 2, read-out: Replicate_2
[27] = sheet LOPAC_screen_w_protease, LOPAC1280 at 5 µM, mean of two replicates
[28] = sheet LOPAC_screen_w_protease, LOPAC1280 at 5 µM, replicate 1
[29] = sheet LOPAC_screen_w_protease, LOPAC1280 at 5 µM, replicate 2
[30] = sheet LOPAC_screen_w_protease, LOPAC1280 primary screen at 5 µM, with protease, mean of the two replicates
[31] = sheet LOPAC_screen_w_protease, LOPAC1280 primary screen at 5 µM, with protease, replicate 1
[32] = sheet LOPAC_screen_w_protease, LOPAC1280 primary screen at 5 µM, with protease, replicate 2

O=C(O)CN(CCN(CC(=O)O)CC(=O)O)CCN(CC(=O)O)CC(=O)O [Diethylenetriaminepentaacetic acid]
mean [1]: 3.2
Replicate_1 [2]: 5.3521
Replicate_2 [3]: 1.048

NC/C=C\C(=O)O [cis-4-Aminocrotonic acid]
mean [4]: 2.546
Replicate_1 [5]: 3.312
Replicate_2 [6]: 1.781

O=C(O)CNC(=O)C(CS)Cc1ccccc1 (racemic) [DL-Thiorphan]
inhibition at 5 µM [7]: 0.357%
inhibition at 5 µM [8]: -0.479%
inhibition at 5 µM [9]: 1.19%

CC(N)C(O)c1ccc(O)c(O)c1 (single isomer, unassigned; (-)) [(-)-alpha-Methylnorepinephrine]
mean (LOPAC screen with protease) [10]: 8.627
Replicate_1 (LOPAC screen with protease) [11]: 8.881
Replicate_2 (LOPAC screen with protease) [12]: 8.372

O=C(c1ccc2c(c1)OCCO2)N1CCCCC1 [CX 546]
Replicate_1: 1.108
Replicate_2: -1.5724
mean: -0.2323

N[C@H](C(=O)O)[C@H]1C[C@@H]1C(=O)O
Replicate_1: 1.266
Replicate_2: 1.079
mean: 1.172

CN(C)CCCO[C@@H]1[C@H]2OC(C)(C)O[C@H]2O[C@@H]1[C@H](O)CO [Amiprilose hydrochloride]
inhibition at 5 µM (sheet LOPAC_screen_w_protease, LOPAC1280 at 5 µM, mean of two replicates, read-out: mean): 1.08%
inhibition at 5 µM (sheet LOPAC_screen_w_protease, LOPAC1280 at 5 µM, replicate 1, read-out: Replicate_1): 1.63%
inhibition at 5 µM (sheet LOPAC_screen_w_protease, LOPAC1280 at 5 µM, replicate 2, read-out: Replicate_2): 0.526%

CN(C)CCCN1c2ccccc2Sc2ccc(C(F)(F)F)cc21 [Triflupromazine hydrochloride]
inhibition at 5 µM [13]: 0.692%
inhibition at 5 µM [14]: 1.65%
inhibition at 5 µM [15]: -0.271%

CC(C)Cn1c(=O)n(C)c(=O)c2[nH]cnc21 [3-Isobutyl-1-methylxanthine]
mean (LOPAC_screen_w_protease) [16]: 2.03
Replicate_1 (LOPAC_screen_w_protease) [17]: -0.07674
Replicate_2 (LOPAC_screen_w_protease) [18]: 4.138

CN1CC[C@@]2(C)c3cc(O)ccc3N(C)[C@@H]12.O=C(O)/C=C/C(=O)O [(-)-Eseroline fumarate]
mean (LOPAC screen with protease) [10]: 88.3904
Replicate_1 (LOPAC screen with protease) [11]: 89.8661
Replicate_2 (LOPAC screen with protease) [12]: 86.9147

Cl.Nc1cc(Cl)c(N=C2NCCN2)c(Cl)c1 [p-Aminoclonidine hydrochloride]
mean [19]: 0.1922
Replicate_1 [20]: 0.5913
Replicate_2 [21]: -0.207

S=C(NC1CCCCC1)N1CCC(c2cnc[nH]2)CC1 [Thioperamide maleate]
inhibition at 5 µM [7]: -0.179%
inhibition at 5 µM [8]: -0.586%
inhibition at 5 µM [9]: 0.227%

COC(=O)c1cc2c(cn1)[nH]c1ccccc12 [Methyl beta-carboline-3-carboxylate]
mean [1]: 3.265
Replicate_1 [2]: 4.868
Replicate_2 [3]: 1.662

C[C@]12CCC(=O)C=C1CC[C@@H]1[C@@H]2CC[C@]2(C)C(=O)CC[C@@H]12 [4-Androstene-3,17-dione]
inhibition at 5 µM (read-out: Replicate_1): 0.757%
inhibition at 5 µM (read-out: Replicate_2): 1.66%
inhibition at 5 µM (read-out: mean): 1.21%

CCn1nc(C(=O)O)c(=O)c2cc3c(cc21)OCO3 [Cinoxacin]
inhibition at 5 µM [22]: -0.0118%
inhibition at 5 µM [23]: 4.09%
mean (LOPAC_screen_w_protease) [16]: 2.037

N=C(N)c1ccccc1 [Benzamidine hydrochloride]
inhibition at 5 µM [24]: 2.38%
inhibition at 5 µM [25]: 1.49%
inhibition at 5 µM [26]: 3.28%

NC(N)=NOCC[C@H](N)C(=O)O.O=S(=O)(O)O [L-Canavanine sulfate]
mean [27]: 1.293
Replicate_1 [28]: 1.623
Replicate_2 [29]: 0.9625

Brc1ccc([C@H]2CN3CCSC3=N2)cc1.O=C(O)C(=O)O [S(-)-p-Bromotetramisole oxalate]
mean [19]: -0.07526
Replicate_1 [20]: 0.5493
Replicate_2 [21]: -0.6998

C[N+](C)(CCCCCC[N+](C)(C)CCCN1C(=O)c2cccc3cccc(c23)C1=O)CCCN1C(=O)c2cccc3cccc(c23)C1=O.[Br-].[Br-] [WB 64]
mean [30]: 0.6302
Replicate_1 [31]: 0.2165
Replicate_2 [32]: 1.044

CN1CCN(c2nc3cc(C(F)(F)F)ccc3n3cccc23)CC1.O=C(O)/C=C\C(=O)O [CGS-12066A maleate]
mean [30]: 0.5818
Replicate_1 [31]: 1.428
Replicate_2 [32]: -0.2648

Cl.NC1(C(=O)O)CC1
mean [27]: 1.084
Replicate_1 [28]: 2.432
Replicate_2 [29]: -0.2629

Cl.NCCc1ccc(O)cc1 [4-Hydroxyphenethylamine hydrochloride]
mean [30]: 0.878
Replicate_1 [31]: 0.5582
Replicate_2 [32]: 1.1978

CCCC(C)(COC(N)=O)COC(=O)NC(C)C (centres unmarked) [Carisoprodol]
inhibition at 5 µM (read-out: Replicate_1): -0.28%
inhibition at 5 µM (read-out: Replicate_2): 2.2%
inhibition at 5 µM (read-out: mean): 0.96%

Nc1nc2[nH]c(=O)cnc2c(=O)[nH]1 [Isoxanthopterin]
inhibition at 5 µM [24]: 2.42%
inhibition at 5 µM [25]: 3.73%
inhibition at 5 µM [26]: 1.11%

Cl.N=C(N)NC(=N)Nc1cccc(Cl)c1
mean (LOPAC_screen_w_protease) [16]: 1.751
Replicate_1 (LOPAC_screen_w_protease) [17]: 2.329
Replicate_2 (LOPAC_screen_w_protease) [18]: 1.173

CN1CCc2cccc(Cl)c2CC1 [SKF 86466]
inhibition at 5 µM [13]: 0.452%
inhibition at 5 µM [14]: 0.136%
inhibition at 5 µM [15]: 0.768%

COc1cc(C(O)CO)ccc1OS(=O)(=O)[O-].[K+] (centres unmarked) [MHPG sulfate potassium]
mean [30]: 0.6725
Replicate_1 [31]: 2.348
Replicate_2 [32]: -1.003

Cl.NCC(O)c1cc(O)c(O)cc1F (centres unmarked) [6-Fluoronorepinephrine hydrochloride]
mean (sheet LOPAC_screen_w_protease, primary screen with protease, compound at 5 µM, mean of two replicates): 2.749
Replicate_1 (sheet LOPAC_screen_w_protease, primary screen with protease, compound at 5 µM, replicate 1): 2.331
Replicate_2 (sheet LOPAC_screen_w_protease, primary screen with protease, compound at 5 µM, replicate 2): 3.1667

CN(C)c1nc(N)c(C(=O)NC(=N)N)nc1Cl [5-(N,N-Dimethyl)amiloride hydrochloride]
inhibition at 5 µM [22]: 1.67%
inhibition at 5 µM [23]: 1.33%
mean (LOPAC_screen_w_protease) (LOPAC1280 primary screen with protease, 5 µM compound, mean of two replicates): 1.502

CC(/C=C/c1cccc(Oc2ccc(F)cc2)c1)N(O)C(N)=O (centres unmarked) [BWB70C]
mean [4]: 2.212
Replicate_1 [5]: 2.534
Replicate_2 [6]: 1.889

COc1ccc2[nH]c(I)c(CCNC(C)=O)c2c1 [2-Iodomelatonin]
mean (sheet LOPAC_screen_w_protease, LOPAC1280 primary screen with protease, 5 µM compound, mean of the two replicates): 5.613
Replicate_1 (sheet LOPAC_screen_w_protease, LOPAC1280 primary screen with protease, 5 µM compound, replicate 1): 6.946
Replicate_2 (sheet LOPAC_screen_w_protease, LOPAC1280 primary screen with protease, 5 µM compound, replicate 2): 4.28

CCCN1CCC[C@H](c2cccc(O)c2)C1.Cl [R(+)-3PPP hydrochloride]
mean [27]: 0.9121
Replicate_1 [28]: 1.657
Replicate_2 [29]: 0.167

Nc1cc(N2CCCCC2)nc(N)[n+]1[O-] [Minoxidil]
inhibition at 5 µM (sheet LOPAC_screen_w_protease, primary screen with protease, compound at 5 µM, mean of two replicates, read-out: mean): 2.95%
inhibition at 5 µM (sheet LOPAC_screen_w_protease, primary screen with protease, compound at 5 µM, replicate 1, read-out: Replicate_1): 3.92%
inhibition at 5 µM (sheet LOPAC_screen_w_protease, primary screen with protease, compound at 5 µM, replicate 2, read-out: Replicate_2): 1.98%

Br.C[N+](C)(C)CCCCCNCC12CC3CC(CC(C3)C1)C2.[Br-] [IEM-1460]
mean [19]: 0.3994
Replicate_1 [20]: 0.5263
Replicate_2 [21]: 0.2724

CC(C)[C@H](NC(=O)OCc1ccccc1)C(=O)N[C@H](C=O)Cc1ccccc1 [MDL 28170] (Cbz-Val-Phe-aldehyde)
inhibition at 5 µM (read-out: Replicate_1 (LOPAC_screen_w_protease)): 0.281%
inhibition at 5 µM (read-out: Replicate_2 (LOPAC_screen_w_protease)): 3.52%

Cc1[nH]c(=O)c(C#N)cc1-c1ccncc1 [Milrinone]
inhibition at 5 µM (sheet LOPAC_screen_w_protease, LOPAC1280 primary screen with protease, 5 µM compound, mean of the two replicates, read-out: mean): 4.26%
inhibition at 5 µM (sheet LOPAC_screen_w_protease, LOPAC1280 primary screen with protease, 5 µM compound, replicate 1, read-out: Replicate_1): 3.12%
inhibition at 5 µM (sheet LOPAC_screen_w_protease, LOPAC1280 primary screen with protease, 5 µM compound, replicate 2, read-out: Replicate_2): 5.4%
